# Laboratory results from patent US5902794A (priority 1997, dated 1999).
# Key:
# [1] = system: MX-1 mammary carcinoma; assay: growth of MX-1 human mammary tumor xenograft; type: in vivo; conditions: 7 days, staging day
# Method: (§1) Based on the findings with the L1210 leukemia model, the efficacy of the 8-Cl-cAMP-Na+ infusions were evaluated in advanced-stage human tumor xenograft models. Tumor fragments of approximately 14 mg were implanted subcutaneously in athymic CD-1 female mice and seven day intraperitoneal infusions of the cyclic nucleotide were initiated three weeks later when mean tumor weights had reached 300-400 mg. Tumor measurements were recorded on the initial day of treatment (staging day) and one day after treatment was completed (staging day+7), and were used to calculate changes in tumor weights.
# (§2) *Mean tumor weight per group on staging day.
# (§3) $Mean tumor weight per group on staging day +7.
# (§4) **Change in *test tumor wt (finalinitial)/initial test tumor wt. Used
# (§5) where test tumor size was reduced during treatment. Denoted by negative
# (§6) $$Change in test tumor wt/change in control tumor wt. Used where test
# (§7) tumor size increased during treatment. Denoted by positive value.
# [2] = lethality in non-tumored BDF1 mice, single i.p. injection; type: in vivo, mouse; conditions: qd, day 1; for Toxic deaths, No. killed/No. treated: ip
# From the text: Influence of 8-Cl-cAMP-Na^+ on the life span of non-tumor
# BDF1 mice when delivered i.p. by bolus injection
# [3] = system: LX-1-Lung carcinoma; assay: growth of LX-1 human lung tumor xenograft; type: in vivo; conditions: 7 days, staging day
# Method: as §1, §2, §3
# (§8) **Change in test tumor wt (final initial)/initial test tumor wt. Used
# (§9) where tumor size was reduced during treatment. Denoted by negative value.
# as §6, §7
# [4] = system: LOVO Colon carcinoma; assay: growth of LOVO human colon tumor xenograft; type: in vivo; conditions: 7 days; for Initial Mean Tumor Wt: staging day
# Method: as §1, §2, §3, §8, §9, §6, §7
# [5] = system: human LoVo colon tumors; assay: subcutaneous infusion in athymic NCR-NU mice bearing human LoVo colon tumors; type: in vivo; conditions: s.c. infusion approx. 42 mg/kg/day (1 mg/mouse), seven days
# [6] = system: MDA-MB-231 mammary carcinoma; assay: growth of MDA-MB-231 human mammary tumor xenograft; type: in vivo; conditions: 7 days, staging day
# Method: as §1, §2, §3, §4, §5, §6, §7
# [7] = system: two mammary, one lung, and one colon tumor; assay: human tumor xenografts in athymic mice; type: in vivo; conditions: seven day intraperitoneal infusions
# Method: as §1
# [8] = system: murine leukemia L1210; assay: life span of L1210-inoculated BDF1 mice; type: in vivo, mouse; conditions: for toxicity remark: ip, 24-hr infusion, day 1-5
# From the text: | Infusions by Harvard pumps.
structure (smiles),measurement,setting,value
Nc1ncnc2c1nc(Cl)n2[C@@H]1O[C@@H]2COP(=O)(O)O[C@H]2[C@H]1O [8-Cl-cAMP-Na^+],Initial Mean Tumor Wt,[1]; 62 mg/kg/day ip infusion,337 mg
same,Initial Mean Tumor Wt,[1]; 104 mg/kg/day ip infusion,346 mg
same,Initial Mean Tumor Wt,[1]; 173 mg/kg/day ip infusion,375 mg
same,"Toxic deaths, No. killed/No. treated",[2]; 22 mg/kg/inj,0
same,"Toxic deaths, No. killed/No. treated",[2]; 37 mg/kg/inj,0
same,"Toxic deaths, No. killed/No. treated",[2]; 62 mg/kg/inj,0
same,"Toxic deaths, No. killed/No. treated",[2]; 104 mg/kg/inj,0
same,mice killed (footnote),[2]; 173 mg/kg,2 of 5
same,"Toxic deaths, No. killed/No. treated",[2]; 173 mg/kg/inj,2/5
same,"Toxic deaths, No. killed/No. treated",[2]; 288 mg/kg/inj,5/5
same,"Toxic deaths, No. killed/No. treated",[2]; 480 mg/kg/inj,5/5
same,lethality (footnote),[2]; 480 and 288 mg/kg,lethally toxic for all treated mice
same,lethality (footnote),[2]; dosages lower than 173 mg/kg,not lethally
same,Initial Mean Tumor Wt,[3]; 37 mg/kg/day ip infusion,330 mg
same,Initial Mean Tumor Wt,[3]; 62 mg/kg/day ip infusion,327 mg
same,Initial Mean Tumor Wt,[3]; 104 mg/kg/day ip infusion,324 mg
same,% ΔT/T or % ΔT/ΔC,[4]; 37 mg/kg/day ip infusion,-01%
same,Initial Mean Tumor Wt,[4]; 37 mg/kg/day ip infusion,288 mg
same,% ΔT/T or % ΔT/ΔC,[4]; 62 mg/kg/day ip infusion,-01%
same,Initial Mean Tumor Wt,[4]; 62 mg/kg/day ip infusion,293 mg
same,Initial Mean Tumor Wt,[4]; 104 mg/kg/day ip infusion,288 mg
same,toxicity,[5],appeared to be toxic
same,Initial Mean Tumor Wt,[6]; 37 mg/kg/day ip infusion,367 mg
same,Initial Mean Tumor Wt,[6]; 62 mg/kg/day ip infusion,375 mg
same,Initial Mean Tumor Wt,[6]; 104 mg/kg/day ip infusion,367 mg
same,"tumor growth during infusion, in words",[7],tumor stasis during treatment
same,mice killed (footnote),"[8]; 288 mg/kg, infused",2 to 5 mice
same,toxicity remark,[8]; 288 mg/kg/day,toxic
same,toxicity remark,[8]; 480 mg/kg/day,toxic
same,toxicity remark,[8]; 800 mg/kg/day,toxic
same,lethality (footnote),"[8]; 800 and 480 mg/kg, infused",lethally toxic for all treated mice
